# Entries after “also recorded” stand apart in the source; their conditions may differ.
# What was measured:
# [1] = tested on: CL3 human lung cancer cell line; assay: MTT cell viability, CL3 cells; format: cell-based; settings: 24 hours
# Procedure: (§1) After drug treatment, the cells were washed with PBS and replaced with fresh complete RPMI-1640 medium for 2 days. Thereafter, the medium was replaced and the cells were incubated with 0.5 mg/mL of MTT reagent (Sigma Chemical Co., St. Louis, Mo.) in complete RPMI-1640 medium for 4 hours. The intensity of formazan was measured at 565 nm using a plate reader (VERSAmax, Molecular Dynamics, Sunnyvale, Calif.). The relative percentage of cell viability was calculated by dividing the absorbance of treated cells by that of the control in each experiment.
# [2] = molecular target: T1, MKNK2 (MAPK-interacting kinase-2) (Homo sapiens, UniProt Q9HBH9); assay: KinaseProfiler assay, MKNK2; format: biochemical; settings: read-out: KAR value (kinase activity remaining)
# T1 construct: purchased Merck Millipore (KinaseProfiler service)
# Excerpt: (§2) The kinase activity remaining (KAR) value is […] related to kinase activity. […]
# [3] = molecular target: T2, STK10 (lymphocyte-oriented kinase) (Homo sapiens, UniProt O94804); assay: KinaseProfiler assay, STK10; format: biochemical; settings: read-out: KAR value (kinase activity remaining)
# T2 construct: purchased Merck Millipore (KinaseProfiler service)
# Excerpt: as §2
# [4] = MTT cell viability, HFL1 normal lung fibroblasts; format: cell-based; settings: human, HFL1 normal lung fibroblast cells, 0 to 40 μM
# Procedure: as §1
# caspase 3 = assay: Western blot of active caspase 3 in A549 cells; settings: 10-40 μM, 24 hours
# Procedure: (§3) The protease inhibitors including 1 μg/ml aprotinin, 0.5 μg/ml leupeptin, and 100 μg/ml 4-(2-aminoethyl)benzenesulfonyl fluoride were added to the cell suspensions. The lysates were vibrated for 30 minutes at 4° C. and centrifuged at 10,000 rpm for 10 minutes. The protein concentrations were determined by the BCA protein assay kit (Pierce, Rockford, Ill.). […] The membranes were blocked overnight at 4° C. using blocking buffer (5% non-fat dried milk in solution containing 50 mM Tris/HCl (pH 8.0), 2 mM CaCl2, 80 mM NaCl, 0.05% Tween 20 and 0.02% sodium azide). The membranes were sequentially hybridized with primary antibody and followed with a horseradish peroxidase-conjugated secondary antibody. The protein bands were visualized on the X-ray film using the enhanced chemiluminescence detection system (PerkinElmer Life and Analytical Sciences, Boston, Mass.). […] To verify equal protein loading and transfer, actin was used as the protein loading control. The gel digitizing software, Un-Scan-It gel (Ver. 5.1, Silk Scientific, Inc., Orem, Utah), was used to analyze the intensity of protein bands on X-ray film.
# (§4) A549 cells were plated at a density of 1×10^6 cells per 60-mm Petri dish in complete medium for 16 to 20 hours. […] To verify equal protein loading and transfer, actin was used as the protein loading control.
# survivin = assay: Western blot of survivin protein expression in A549 cells; settings: 0 to 40 μM, 24 hours
# Procedure: as §3, §4
# PARP = assay: Western blot of cleaved PARP in A549 cells; settings: 10-40 μM, 24 hours
# Procedure: as §3, §4
# A549 cell line = assay: MTT cell viability, A549 cell line; format: cell-based, human
# Procedure: The above cell lines were plated in 96-well plates at a density of 1×10^4 cells/well for 16 to 20 hours. […] After drug treatment, the cell lines were washed with phosphate-buffered saline (hereinafter referred to PBS), and were replaced with fresh complete RPMI-1640 medium for 2 days. Thereafter, the medium was replaced and the cells were incubated with 0.5 mg/ml of 3-(4,5-dimethylthiazol-2-yl)-2,5-diphenyltetrazolium bromide reagent (hereinafter referred to MTT, Sigma Chemical Co., St. Louis, Mo.) in complete RPMI-1640 medium for 4 hours. The viable cells converted MTT to formazan that generates a blue-purple color when dissolved in dimethyl sulfoxide (hereinafter referred to DMSO). The intensity of formazan was measured at 565 nm using a plate reader (VERSAmax, Molecular Dynamics, Sunnyvale, Calif.). The relative percentage of cell viability was calculated by dividing the absorbance of treated cells by that of the control in each experiment.
# as §1
# [5] = molecular target: T3, EGFR (epidermal growth factor receptor) (Homo sapiens, UniProt P00533); assay: KinaseProfiler assay, EGFR; format: biochemical; settings: read-out: KAR value (kinase activity remaining)
# T3 construct: purchased Merck Millipore (KinaseProfiler service)
# A549 cells = assay: Cell growth, cell number by hemocytometer; format: cell-based, human; settings: 30 μM for 24 hours, then cultured 2-6 days
# Procedure: The cells were washed with PBS after the treatment. […] The cell number was calculated with hemocytometer.
# T3 sequence (P00533 25-1210): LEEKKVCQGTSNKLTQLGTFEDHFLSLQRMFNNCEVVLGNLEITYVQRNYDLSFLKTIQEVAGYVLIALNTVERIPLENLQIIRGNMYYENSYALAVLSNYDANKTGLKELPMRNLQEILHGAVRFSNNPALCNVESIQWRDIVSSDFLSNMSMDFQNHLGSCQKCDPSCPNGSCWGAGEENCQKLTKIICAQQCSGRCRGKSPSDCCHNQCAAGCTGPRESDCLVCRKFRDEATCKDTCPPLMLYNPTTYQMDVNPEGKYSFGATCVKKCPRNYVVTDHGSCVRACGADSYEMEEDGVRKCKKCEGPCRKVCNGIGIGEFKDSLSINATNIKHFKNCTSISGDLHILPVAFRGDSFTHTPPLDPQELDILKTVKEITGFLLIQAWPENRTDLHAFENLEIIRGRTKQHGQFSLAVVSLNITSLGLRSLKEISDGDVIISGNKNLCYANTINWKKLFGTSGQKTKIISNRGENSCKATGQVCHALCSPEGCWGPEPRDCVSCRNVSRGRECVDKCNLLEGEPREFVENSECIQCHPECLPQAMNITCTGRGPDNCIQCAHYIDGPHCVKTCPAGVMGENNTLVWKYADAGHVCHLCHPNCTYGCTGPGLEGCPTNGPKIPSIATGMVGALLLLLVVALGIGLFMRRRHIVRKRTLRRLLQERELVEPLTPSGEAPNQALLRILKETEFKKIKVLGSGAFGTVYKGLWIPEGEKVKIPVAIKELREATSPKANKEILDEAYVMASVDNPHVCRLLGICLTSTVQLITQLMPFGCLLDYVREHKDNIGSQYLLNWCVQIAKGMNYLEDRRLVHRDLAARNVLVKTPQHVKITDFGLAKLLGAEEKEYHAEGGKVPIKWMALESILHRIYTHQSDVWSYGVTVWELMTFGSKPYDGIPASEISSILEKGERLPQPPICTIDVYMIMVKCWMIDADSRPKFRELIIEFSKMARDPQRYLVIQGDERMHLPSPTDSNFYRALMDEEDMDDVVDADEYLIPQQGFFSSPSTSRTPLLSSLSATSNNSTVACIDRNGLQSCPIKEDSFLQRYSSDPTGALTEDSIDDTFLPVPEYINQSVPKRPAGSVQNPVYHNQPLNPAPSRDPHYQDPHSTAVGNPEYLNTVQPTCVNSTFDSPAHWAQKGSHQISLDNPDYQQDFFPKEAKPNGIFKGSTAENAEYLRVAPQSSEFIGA
# T2 sequence (O94804 whole entry): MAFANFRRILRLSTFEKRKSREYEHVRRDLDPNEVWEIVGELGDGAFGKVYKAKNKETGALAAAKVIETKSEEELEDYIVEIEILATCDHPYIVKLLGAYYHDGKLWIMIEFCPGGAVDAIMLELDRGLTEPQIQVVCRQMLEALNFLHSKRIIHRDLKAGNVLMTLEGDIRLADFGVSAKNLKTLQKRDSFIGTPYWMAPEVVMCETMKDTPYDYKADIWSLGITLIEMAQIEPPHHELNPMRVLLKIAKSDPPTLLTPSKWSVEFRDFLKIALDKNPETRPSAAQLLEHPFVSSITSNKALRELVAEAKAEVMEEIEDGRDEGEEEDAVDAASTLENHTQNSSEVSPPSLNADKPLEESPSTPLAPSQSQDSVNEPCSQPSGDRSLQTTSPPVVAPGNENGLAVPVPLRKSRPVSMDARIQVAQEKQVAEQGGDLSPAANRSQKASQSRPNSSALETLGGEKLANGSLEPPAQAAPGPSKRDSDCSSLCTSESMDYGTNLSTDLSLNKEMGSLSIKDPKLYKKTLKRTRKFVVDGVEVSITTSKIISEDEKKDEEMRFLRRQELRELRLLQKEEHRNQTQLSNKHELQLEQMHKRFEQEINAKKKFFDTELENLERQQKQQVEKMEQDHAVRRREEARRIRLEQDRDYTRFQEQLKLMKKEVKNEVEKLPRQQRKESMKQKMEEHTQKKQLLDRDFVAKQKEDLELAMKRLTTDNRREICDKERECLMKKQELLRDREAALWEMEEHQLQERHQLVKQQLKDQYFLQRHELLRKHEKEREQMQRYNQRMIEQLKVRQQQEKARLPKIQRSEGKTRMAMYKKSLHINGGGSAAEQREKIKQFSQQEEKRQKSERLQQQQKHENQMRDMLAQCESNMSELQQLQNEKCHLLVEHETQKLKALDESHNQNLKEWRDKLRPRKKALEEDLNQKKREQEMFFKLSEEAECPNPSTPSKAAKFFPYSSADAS
# T1 sequence (Q9HBH9 whole entry): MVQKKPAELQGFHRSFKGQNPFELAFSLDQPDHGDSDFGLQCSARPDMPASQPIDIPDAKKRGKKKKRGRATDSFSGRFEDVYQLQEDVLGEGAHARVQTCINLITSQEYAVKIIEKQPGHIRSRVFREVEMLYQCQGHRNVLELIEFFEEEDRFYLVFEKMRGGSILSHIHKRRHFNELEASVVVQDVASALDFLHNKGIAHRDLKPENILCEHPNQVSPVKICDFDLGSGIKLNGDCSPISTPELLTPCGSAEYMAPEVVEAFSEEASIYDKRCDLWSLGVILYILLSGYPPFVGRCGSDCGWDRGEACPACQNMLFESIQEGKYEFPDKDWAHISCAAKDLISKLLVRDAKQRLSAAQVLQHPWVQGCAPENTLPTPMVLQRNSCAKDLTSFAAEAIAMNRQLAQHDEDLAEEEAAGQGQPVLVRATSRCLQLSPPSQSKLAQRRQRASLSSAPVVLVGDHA
smiles,measurement,setting,value
"CCCCCCCCCCCCOC(=O)CCC(=O)N1CCN(CCCOc2cc3c(Nc4ccc(F)c(Cl)c4)ncnc3cc2OC)CC1 [Analogue-18, dodecyl 4-(4-(3-(4-(3-chloro-4-fluorophenylamino)-7-methoxyquinazolin-6-yloxy)propyl)piperazin-1-yl)-4-oxobutanoate]",reducing cell viability,"[1]; CL3, 0 to 40 μM, compared with Iressa",more effective on reducing cell viability than Iressa
same,toxicity effects,"[1]; CL3, 40 μM",more than 99%
same,remaining activity at 10 µM,[2],85%
same,remaining activity at 10 µM,[3],43%
same,viability at 24 h,[4],> 30%
same,active form of caspase 3,caspase 3,significantly induced
same,survivin protein expression,survivin,significantly inhibited surviving protein expression
same,cleaved form of PARP,PARP,induced the cleaved form of PARP
same,toxicity effect on A549 cell line,"A549 cell line; 24 hours, in comparison with Iressa",best toxicity effect; also recorded: more effective on reducing cell viability than Iressa
same,toxicity effects,"A549 cell line; A549, 40 μM, 24 hours",more than 99%
same,increased toxicity effect,"A549 cell line; A549 cell line, 40 μM",15-20 times
same,viability at 10 µM,"A549 cell line; Homo sapiens, A549 cell line, 10 μM, 24 hours, MTT",95.5%
same,viability at 20 µM,"A549 cell line; Homo sapiens, A549 cell line, 20 μM, 24 hours, MTT",86.8%
same,viability at 40 µM,"A549 cell line; Homo sapiens, A549 cell line, 40 μM, 24 hours, MTT",5.7%
same,viability at 60 µM,"A549 cell line; Homo sapiens, A549 cell line, 60 μM, 24 hours, MTT",2%
same,viability at 80 µM,"A549 cell line; Homo sapiens, A549 cell line, 80 μM, 24 hours, MTT",2.3%
same,remaining activity at 10 µM,[5],-2%
same,cell growth of A549 cells,A549 cells,"inhibit cell growth of A549 cells, and Analogue-18 is more effective"
